Patent publication US9073858B2, “Methods of targeted drug development” (priority 2010, dated 2015)
Read-outs that look alike come from different tables or passages of the source.

Tests used:
EGFR = biological target: T1, EGFR (Homo sapiens, UniProt P00533); test: EGFR in-cell Western (ICW) screening protocol; format: cell-based; set-up: unit not given here; settings: for ICW Screen: initial screen
T1 construct: endogenous in cells; host or cells: A431 cells (ATCC CRL-1555)
Method: The following example describes general EGFR in-cell Western (ICW) screening protocol.
Two cell plates were prepared for each compound plate.
Serum Starvation: The cells were serum starved prior to compound addition. […] The cell plates were incubated at 37° C./5% CO2 for 2 hours.
Prepared compound plates were stored at RT prior to use and at 4° C. long term.
Compound Dilution Plate Preparation: 250 μl of DMEM supplemented with 1 mg/ml BSA (Sigma A3059-10G) was added to the appropriate wells of a 96 well plate to prepare the compound dilution plates. Using a multichannel pipettor, 1.25 μl of compound from the compound plate was transferred into the compound dilution plate.
Compound Addition: The starve media was removed from the cell plates by aspiration. Using a multichannel pipettor, the compound dilution plates were mixed by pipetting up and down three times. 50 μl of mixed, diluted compound was added to each of two rows/columns on each of two cell plates. The cell plates with compound were incubated at 37° C./5% CO2 for 4 hours.
50 μl of 20 or 0 ng/ml EGF was added to the appropriate wells without the removal of compound. The compound and EGF were mixed by pipetting up and down three times.
The plates were incubated at RT for 20 min without shaking. The Fixation Solution was removed by aspiration and the plates washed four times with 200 μl each of Triton Wash Solution (1×PBS, Sigma P3813-10PK, and 0.1% Triton X-100, T8787-50ML) for 5 min with gentle shaking.
The block was removed by aspiration and 50 μl of diluted primary Ab mix was added. The plates were incubated at 4° C. overnight with gentle shaking. The plates were washed five times with 200 μl of PBST (1×PBS, Sigma P3813-10PK, and 0.1% Tween-20, Sigma P9416-50ML) for 5 min each with shaking. 50 μl of diluted secondary Ab mix was added and the plates incubated at RT for 1 h with shaking. The plates were washed 5× with 200 μl of PBST for 5 min each with shaking. One final wash with 200 μl of PBS (Sigma P3813-10PK) for 5 min with shaking was performed prior to scanning.
In some screening assays, the dilution of the secondary Ab conjugates was 1/800 rather than 1/1200.
Plate Scanning: The plates were scanned on an Odyssey Infrared Imaging System from LI-COR Biosciences. The focus offset was set at 3.5 mm and the scanning intensity set at 3 for the 700 channel and 7 for the 800 channel.
Data Analysis: The % of Maximum and % Inhibition values were calculated as follows. 700 Channel=signal for total EGFR (used to control for variation in cell number). 800 Channel=signal for phosphorylated EGFR. 800−EGF=basal level EGFR phosporylation+non-specific signal (no compound). 800+EGF=800−EGF+EGF dependent EGFR receptor phosphorylation (no compound). 700/800com=700 or 800 channel signals with compound. % Maximum={[(800com/700com)−(800−EGF/700−EGF)]/[(800+EGF/700+EGF)−(800−EGF/700−EGF)]}×100%. % Inhibition=100%−(% Maximum).

MDBK line = test: MTT Cell Proliferation Assay, MDBK line; format: cell-based, bovine; settings: Bos taurus, MDBK
Source text: (§1) The following example describes the MTT Cell Proliferation Assay.
(§2) The MTT Cell Proliferation Assay is a colorimetric assay system that measures the reduction of the tetrazolium salt MTT (3-(4,5-dimethylthiazol-2-yl)-2,5-diphenyltetrazolium bromide) into insoluble formazan crystals, produced by the mitochondria of viable cells. […] The color can then be quantified by spectrophotometric means. Among the applications for the method are drug sensitivity, cytotoxicity, response to growth factors, and cell activation. The reduction of tetrazolium salts is now recognized as a safe, accurate alternative to radiometric testing.
(§3) Two replicates on each cell plate and 2 duplicate plates gave 4 individual replicates of each concentration, in each cell line. Concentrations were diluted in 100% DMSO from 25 mM stocks.
(§4) Twelve 96 well plates of each cell line were plated. Plating was done by dislodging cells as in passage protocol, counting on a hemocytometer, re-suspending in standard growth media, and plating using a multichannel pippetor.
(§5) 16 μl of 25 mM stock+34 μl DMSO=8 mM starting concentrations, and serial diluted as with test compounds in same plate. […] Two replicates of each concentrations was run on each cell plate. All compound addition and cell treatments were done using aseptic technique under a laminar flow aseptic hood.
(§6) Control: 0.5% DMSO in treatment media was used as the control.
(§7) MTT dye (Thiazolyl Blue Tetrazolium Bromide, Sigma cat # M5655) stock was prepared in bulk and stored at 4° C. for use: 5 mgs/ml sterile PDS, shielded from light. 4 ul of this stock per 100 uls treatment media per well was used.
(§8) Plates were incubated overnight prior to treatment, with treatment day=Day 0. Compound treatments were prepared prior to washing cells to minimize time cells were dry at room temperature after final aspiration. Compounds were diluted in 100% DMSO in 96 well polypropylene plates:40 μl 25 mM stock+10 μl DMSO=20 mM; 20 μl of 20 mM+30 μl DMSO=8 mM; 20 μl of 8 mM+30 μl DMSO=3.2 mM; 20 μl of 3.2 mM+30 μl DMSO=1.3 mM; 20 μl of 1.3 mM+30 μl DMSO=0.51 mM.
(§9) 5.0 μl/ml were added to treatment media, in sterile, 2.2 ml deep well plates=0.5% dmso final. Ten μl of each dmso concentration was added to 2.0 ml of treatment media and then mixed using a 1200 μl multichannel pipettor. Cell plates were treated from the deep well plates. Treatment media was standard growth media containing 0.5% FBS and standard additions. This reduced FBS concentration allowed for a slower growth rate in cells.
(§10) Media was aspirated from cell plates, and washed with 200 μl/well sterile PBS. Aspirated PBS wash, and cell plates were treated with 200 μl of compound/treatment media per well, and incubated at 37° C., 5% CO2 for 3 days.
(§11) Prior to harvesting, visual observations were made under an inverted microscope. Plates were harvested by: aspirating the growth media; adding back MTT dye/100 μl treatment media; and incubating plates at 37° C. for 1 hour. MTT dye was aspirated. 100 μl/well dmso was added, and then shaken on a Bellco plate shaker for 5 minutes, at 4.5 setting.
(§12) Plates were read in a Tecan Sunrize UV plate reader, at 560 nm. Settings: Read mode, Outside Normal 2 sec; Shake settle time 3 sec. Data is reported as % inhibition, calculated for individual plates using control values from that plate.

[1] = tested on: epithelial carcinoma A431 cell line; test: MTT Cell Proliferation Assay, A431 cell line; format: cell-based; settings: for MTT (10 Point follow-up) ratio / MTT-72 h A431/MDBK (ratio): value in brackets; for MTT (10 Point follow-up) ratio: numerically MDBK over A431; for MTT-72 h A431/MDBK (ratio): numerically MDBK value over A431 value
Source text: as §1, §2, §3, §4, §5, §6, §7, §8, §9, §10, §11, §12

[2] = 10 point follow-up, second value of pair, read-out: MTT (10 Point follow-up) MDBK
[3] = 72 h, second value of A431/MDBK pair, read-out: MTT-72 h MDBK
[4] = Homo sapiens, A-431, 10 point follow-up, first value of pair, read-out: MTT (10 Point follow-up) A431
[5] = Homo sapiens, A-431, 72 h, 72 h, first value of A431/MDBK pair, read-out: MTT-72 h A431

T1 sequence (P00533 25-1210): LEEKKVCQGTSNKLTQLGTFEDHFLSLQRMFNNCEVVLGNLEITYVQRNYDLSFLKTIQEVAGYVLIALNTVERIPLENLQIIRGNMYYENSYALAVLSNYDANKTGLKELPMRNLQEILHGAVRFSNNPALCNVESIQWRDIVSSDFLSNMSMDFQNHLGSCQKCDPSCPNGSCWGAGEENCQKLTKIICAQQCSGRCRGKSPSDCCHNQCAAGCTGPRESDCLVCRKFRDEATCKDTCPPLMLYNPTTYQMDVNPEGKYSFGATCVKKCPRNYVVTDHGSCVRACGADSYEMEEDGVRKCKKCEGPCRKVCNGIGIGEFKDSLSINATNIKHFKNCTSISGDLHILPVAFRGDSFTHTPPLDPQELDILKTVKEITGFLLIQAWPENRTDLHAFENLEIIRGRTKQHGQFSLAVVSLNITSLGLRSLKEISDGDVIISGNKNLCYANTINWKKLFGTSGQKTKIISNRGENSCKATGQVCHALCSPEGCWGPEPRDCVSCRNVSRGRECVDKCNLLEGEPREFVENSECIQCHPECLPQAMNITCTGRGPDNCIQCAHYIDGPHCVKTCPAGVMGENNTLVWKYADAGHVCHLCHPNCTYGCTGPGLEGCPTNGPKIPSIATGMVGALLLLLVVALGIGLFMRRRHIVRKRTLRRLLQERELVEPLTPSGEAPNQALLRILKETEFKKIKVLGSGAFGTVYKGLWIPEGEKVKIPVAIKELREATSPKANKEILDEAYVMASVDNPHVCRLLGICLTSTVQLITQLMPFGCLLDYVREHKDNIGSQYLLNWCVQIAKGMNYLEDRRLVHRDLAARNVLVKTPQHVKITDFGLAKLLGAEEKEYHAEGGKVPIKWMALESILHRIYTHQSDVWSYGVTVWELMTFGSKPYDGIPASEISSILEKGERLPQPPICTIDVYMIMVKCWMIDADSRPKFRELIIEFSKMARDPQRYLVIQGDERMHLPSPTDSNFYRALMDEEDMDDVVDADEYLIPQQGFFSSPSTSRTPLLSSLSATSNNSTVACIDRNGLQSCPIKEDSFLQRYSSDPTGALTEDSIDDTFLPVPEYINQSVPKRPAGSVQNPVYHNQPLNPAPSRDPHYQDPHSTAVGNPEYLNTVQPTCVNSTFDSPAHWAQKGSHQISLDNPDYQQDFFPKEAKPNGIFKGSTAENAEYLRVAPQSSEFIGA

Q: For `CCC(=O)NC(c1cccs1)c1cc([N+](=O)[O-])c2cccnc2c1O` (stereo not shown) [compound 10960], which “ICW Screen” value (EGFR) is on record?
A: 32.5

Q: And the “ICW Re-Test” value (EGFR)?
A: 91.3

Q: What about the IC50 (MDBK line; [2]) of the same compound?
A: 0.967 µM

Q: What about the IC50 (MDBK line; [3]) of the same compound?
A: 1.02 µM

Q: And the “MTT (10 Point follow-up) ratio” value [1]?
A: 1.49

Q: What about the “MTT-72 h A431/MDBK (ratio)” value ([1]; 72 h) of the same compound?
A: 1.52

Q: What about the IC50 [1, 4] of the same compound?
A: 0.648 µM

Q: What about the IC50 [1, 5] of the same compound?
A: 0.67 µM

Q: Which “ICW Screen” value (EGFR) does the source give for `CCCC(=O)NC(c1ccc(O)c(OCC)c1)c1cc([N+](=O)[O-])c2cccnc2c1O` (stereo not shown) [compound 10959] here?
A: 42.18

Q: What about the “ICW Re-Test” value (EGFR) of the same compound?
A: 87.34

Q: What about the IC50 (MDBK line; [2]) of the same compound?
A: 2.07 µM

Q: And the IC50 (MDBK line; [3])?
A: 2.43 µM

Q: And the “MTT (10 Point follow-up) ratio” value [1]?
A: 2.16

Q: What about the “MTT-72 h A431/MDBK (ratio)” value ([1]; 72 h) of the same compound?
A: 2.47

Q: What about the IC50 [1, 4] of the same compound?
A: 0.96 µM

Q: What about the IC50 [1, 5] of the same compound?
A: 0.98 µM

Q: For `Oc1c(C(c2ccccn2)N2CCN(Cc3ccccc3)CC2)ccc2cccnc12` (stereo not shown) [compound 10534], which “ICW Screen” value (EGFR) is on record?
A: 28.31

Q: And the IC50 (MDBK line; [3])?
A: 9.18 µM

Q: What about the “MTT-72 h A431/MDBK (ratio)” value ([1]; 72 h) of the same compound?
A: 0.85

Q: And the IC50 [1, 5]?
A: 10.8 µM

Q: Which results are given for `Oc1c(C(Nc2ccccn2)c2ccc(Cl)c(Cl)c2)ccc2cccnc12` (stereo not shown) [compound 10109]?
A: ICW Screen (EGFR): 12.75; IC50 (MDBK line; [2]): 1.38 µM; MTT (10 Point follow-up) ratio [1]: 2.58; IC50 [1, 4]: 0.534 µM

Q: With `CCOc1ccc(NC(c2ccccn2)c2ccc3cccnc3c2O)cc1` (stereo not shown) [compound 11000] as the compound, how does the “ICW Screen” value (EGFR) read?
A: 27.62

Q: What about the IC50 (MDBK line; [3]) of the same compound?
A: 11.2 µM

Q: And the IC50 ([1]; 72 h, first value of A431/MDBK pair, read-out: MTT-72 h A431)?
A: 11.4 µM

Q: What about the “MTT-72 h A431/MDBK (ratio)” value ([1]; 72 h) of the same compound?
A: 0.99

Q: With `CC(=O)Nc1ccc(NC(c2ccccn2)c2ccc3cccnc3c2O)cc1` (stereo not shown) [compound 11017] as the compound, how does the “ICW Screen” value (EGFR) read?
A: 25.07

Q: And the IC50 (MDBK line; [3])?
A: 9.66 µM

Q: What about the “MTT-72 h A431/MDBK (ratio)” value ([1]; 72 h) of the same compound?
A: 0.83

Q: What about the IC50 [1, 5] of the same compound?
A: 11.6 µM

Q: With `COc1ccc(C(NC(=O)C2CCCCC2)c2cc([N+](=O)[O-])c3cccnc3c2O)cc1OC` (stereo not shown) [compound 10940] as the compound, how does the “ICW Screen” value (EGFR) read?
A: 38.28

Q: What about the “ICW Re-Test” value (EGFR) of the same compound?
A: 72.45

Q: What about the IC50 (MDBK line; [2]) of the same compound?
A: 0.594 µM

Q: What about the IC50 (MDBK line; [3]) of the same compound?
A: 16.6 µM

Q: And the “MTT (10 Point follow-up) ratio” value [1]?
A: 1.77

Q: And the “MTT-72 h % Max” value ([1]; 72 h, maximal effect printed after the ratio)?
A: 57%

Q: What about the “MTT-72 h A431/MDBK (ratio)” value ([1]; 72 h) of the same compound?
A: 1.21

Q: And the IC50 [1, 4]?
A: 0.336 µM

Q: What about the IC50 [1, 5] of the same compound?
A: 13.6 µM

Q: For `Cc1ccc2ccc(C(Nc3ccccn3)c3cccnc3)c(O)c2n1` (stereo not shown) [compound 10967], which “ICW Screen” value (EGFR) is on record?
A: 25.98

Q: What about the “ICW Re-Test” value (EGFR) of the same compound?
A: 15.92

Q: And the IC50 (MDBK line; [3])?
A: 31 µM

Q: And the “MTT-72 h A431/MDBK (ratio)” value ([1]; 72 h)?
A: 0.67

Q: And the IC50 [1, 5]?
A: 46 µM

Q: With `Cc1ccc2ccc(C(Nc3ccccn3)c3ccc(F)cc3)c(O)c2n1` (stereo not shown) [compound 10045] as the compound, how does the “ICW Screen” value (EGFR) read?
A: 27.22

Q: What about the IC50 (MDBK line; [3]) of the same compound?
A: 9.85 µM

Q: What about the “MTT-72 h A431/MDBK (ratio)” value ([1]; 72 h) of the same compound?
A: 0.73

Q: What about the IC50 [1, 5] of the same compound?
A: 13.5 µM

Q: With `Cc1cccc(NC(c2ccccn2)c2ccc3ccc(C)nc3c2O)n1` (stereo not shown) [compound 10948] as the compound, how does the “ICW Screen” value (EGFR) read?
A: 44.24

Q: What about the “ICW Re-Test” value (EGFR) of the same compound?
A: 30.99

Q: What about the IC50 (MDBK line; [3]) of the same compound?
A: 11.9 µM

Q: And the “MTT-72 h A431/MDBK (ratio)” value ([1]; 72 h)?
A: 1.34

Q: And the IC50 [1, 5]?
A: 8.87 µM
